Test results as given in US12351574B2, “Selective ligands for modulation of GIRK channels” (Northeastern University, priority 2018, dated 2025).

Columns and labels:
[1] = light-dark box (LD) test; type: in vivo, rat; settings: 10 and 30 mg/kg
Method: Light-dark box: Light-Dark Box test was preformed using a cage 52×100×39 cm divided into two equal sections by an opening. One section is brightly illuminated whereas the other section is dark. Animals were injected 30 min prior to testing with vehicle or ligand and then placed into the light side with immediate access to explore the entire cage. Time spent in the illuminated section was analyzed. The chamber was cleaned between each experiment.

[2] = target: human ERG (hERG) channels (Homo sapiens, UniProt Q12809); settings: 5 µM
Method: In FIG. 52A, human ERG (hERG) channels were expressed in Xenopus oocytes and studied by two-electrode voltage clamp (TEVC). In FIG. 52A, hERG tail-current magnitude was assessed at −50 mV, following a 4 second test step to 20 mV from a holding voltage of −100 mV. The test pulse was repeated every 10-seconds. […] Two-electrode voltage-clamp and data analysis: Whole-oocyte currents were measured by two-electrode voltage clamp (TEVC) with GeneClamp 500 (Molecular Devices), or TEC-03X (NPI) amplifiers. […] The oocytes were bathed in ND96 recording solution comprising, in mM: KCl 2, NaCl 96, MgCl2 1 and HEPES 5, buffered to pH 7.4 with KOH. Where indicated, GIRK channel currents were assessed in a high K^+ recording solution comprising, in mM: KCl 96, NaCl 2, MgCl2 1 and HEPES 5, buffered to pH 7.4 with KOH. Currents were digitized using a USB interface (National Instruments) and recorded using WinWCP software (University of Strathclyde). To study GIRK channels, oocytes were held at 0 mV, and currents were assessed by 100 ms ramps from −80 to +80 mV that were repeated every second. The effect of the reagents was determined at −80 mV, then the channels were blocked by 5 mM BaCl2. Block was expressed as the percent-current block normalized to the maximum current. Between 8-12 oocytes from different Xenopus frogs were studied per experiment.

[3] = target: T1, GIRK1/2 (UniProt P48542+P48549); test: thallium flux assay, cells expressing GIRK1/2; type: cell-based; design: expressed in transfected cells
T1 sequence (P48549 1-501): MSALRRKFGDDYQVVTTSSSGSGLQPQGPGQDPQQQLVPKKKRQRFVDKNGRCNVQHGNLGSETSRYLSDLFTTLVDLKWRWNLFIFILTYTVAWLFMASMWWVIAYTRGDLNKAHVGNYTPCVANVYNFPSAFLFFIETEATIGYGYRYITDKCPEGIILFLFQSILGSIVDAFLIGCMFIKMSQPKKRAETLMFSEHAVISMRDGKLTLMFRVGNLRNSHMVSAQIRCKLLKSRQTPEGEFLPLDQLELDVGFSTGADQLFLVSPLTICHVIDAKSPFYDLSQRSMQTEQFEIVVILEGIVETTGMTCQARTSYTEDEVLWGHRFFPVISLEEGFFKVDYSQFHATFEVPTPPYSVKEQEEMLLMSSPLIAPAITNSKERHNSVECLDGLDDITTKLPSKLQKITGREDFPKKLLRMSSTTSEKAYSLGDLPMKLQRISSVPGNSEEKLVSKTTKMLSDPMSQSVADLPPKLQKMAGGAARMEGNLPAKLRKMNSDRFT
T1 sequence (P48542 1-425): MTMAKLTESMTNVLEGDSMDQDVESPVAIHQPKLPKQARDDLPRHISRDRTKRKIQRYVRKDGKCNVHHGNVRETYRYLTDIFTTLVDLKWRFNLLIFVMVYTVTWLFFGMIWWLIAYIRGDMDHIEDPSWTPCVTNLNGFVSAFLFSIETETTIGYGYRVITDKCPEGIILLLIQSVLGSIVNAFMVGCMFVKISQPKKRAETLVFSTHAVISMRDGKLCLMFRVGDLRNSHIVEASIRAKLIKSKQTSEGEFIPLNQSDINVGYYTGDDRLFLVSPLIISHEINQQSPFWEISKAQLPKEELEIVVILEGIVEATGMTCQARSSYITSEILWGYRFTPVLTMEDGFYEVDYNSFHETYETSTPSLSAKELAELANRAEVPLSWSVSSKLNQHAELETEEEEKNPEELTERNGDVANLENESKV
Excerpt: Previous studies have utilized the thallium flux Assay to test the effects of ML297 and related compounds in cells coexpressing GIRK1/2 and GIRK1/4. In order to fully investigate the selective activation of GAT compounds, the inventors also utilized this assay. […] To determine the differences between the thallium flux and TEVC assays, the inventors computationally tested whether the binding of selective compounds could affect the selectivity of the pore area. The Cα RMSF of the region between the M1 and M2 helices of the channel were calculated during the MD simulation with or without ML297 and the selective GAT compounds in the GIRK2/2^FD and GIRK4/4^FD systems (FIGS. 60A-60B). […] To further test this idea, the inventors compared the 10 μM GAT1508-induced thallium and potassium currents in oocytes expressing GIRK1/2 and GIRK1/4 by TEVC recording (FIG. 61B). […] In an effort to enhance the current, the TEVC recording was performed at a holding potential of −100 mV.

Chain of human ERG (hERG) channels (Q12809 whole entry): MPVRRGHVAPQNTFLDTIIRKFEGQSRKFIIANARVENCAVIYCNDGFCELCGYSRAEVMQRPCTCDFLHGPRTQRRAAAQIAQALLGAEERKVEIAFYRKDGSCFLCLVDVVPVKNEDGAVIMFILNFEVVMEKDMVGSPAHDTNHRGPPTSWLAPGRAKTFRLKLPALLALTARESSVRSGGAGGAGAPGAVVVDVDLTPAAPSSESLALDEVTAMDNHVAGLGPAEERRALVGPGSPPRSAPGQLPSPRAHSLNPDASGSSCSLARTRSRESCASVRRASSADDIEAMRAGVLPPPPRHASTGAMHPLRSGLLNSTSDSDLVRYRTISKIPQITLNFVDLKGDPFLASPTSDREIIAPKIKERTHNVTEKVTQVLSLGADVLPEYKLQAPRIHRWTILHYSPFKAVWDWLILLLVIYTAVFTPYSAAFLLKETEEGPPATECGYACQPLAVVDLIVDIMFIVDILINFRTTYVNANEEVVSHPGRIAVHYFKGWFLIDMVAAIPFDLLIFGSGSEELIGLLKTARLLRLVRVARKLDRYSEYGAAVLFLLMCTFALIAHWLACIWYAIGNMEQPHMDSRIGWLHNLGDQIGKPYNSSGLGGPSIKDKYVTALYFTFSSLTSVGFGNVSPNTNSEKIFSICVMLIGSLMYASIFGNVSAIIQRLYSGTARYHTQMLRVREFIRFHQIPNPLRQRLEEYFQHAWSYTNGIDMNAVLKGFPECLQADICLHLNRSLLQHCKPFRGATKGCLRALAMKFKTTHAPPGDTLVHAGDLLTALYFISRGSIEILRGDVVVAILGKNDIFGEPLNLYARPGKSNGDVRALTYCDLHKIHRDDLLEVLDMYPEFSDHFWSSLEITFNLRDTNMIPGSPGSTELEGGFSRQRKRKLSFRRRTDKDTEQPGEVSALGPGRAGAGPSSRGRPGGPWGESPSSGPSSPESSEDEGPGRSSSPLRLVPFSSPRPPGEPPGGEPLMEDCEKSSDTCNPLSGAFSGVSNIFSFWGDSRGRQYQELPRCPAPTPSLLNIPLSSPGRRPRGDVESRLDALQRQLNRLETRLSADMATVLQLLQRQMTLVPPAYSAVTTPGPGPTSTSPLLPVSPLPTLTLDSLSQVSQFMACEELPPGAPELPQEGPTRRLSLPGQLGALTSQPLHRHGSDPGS

Compound	time spent in the light compartment versus vehicle (in words) [1]	inhibition of the hERG tail current [2] [%]	EC50 [3] [nM]
Cc1cc(NC(=O)Nc2ccc(Br)s2)n(-c2ccccc2)n1 [GAT1508, 1-(5-bromothiophen-2-yl)-3-(3-methyl-1-phenyl-1H-pyrazol-5-yl)urea]	no difference		
Cc1cc(NC(=O)Nc2ccc(F)c(F)c2)n(-c2ccccc2)n1 [ML297, reference compound]		~40	~689
